Experiment: Side effects on the skin or subcutaneous tissue in test of intravenous administration of compound A composition to healthy subjects
Assay type: in vivo, human
Conditions: for Erythema (number of subjects) / Hyperhidrosis (number of subjects) / Number of subjects who showed at least one symptom / Pruritus (number of subjects): N=6 healthy adult males, within 24 hours after initiation of administration
Experimental: Water for injection (5 mL) was added to each of the obtained 0 mg formulation and 25 mg formulation to dissolve the freeze-dried compositions (freeze-dried cakes), thus obtaining aqueous solutions for injection. When the 25 mg formulation was dissolved in 5 mL of water for injection, 5.21 mL of the aqueous solution composition (25 mg formulation (aqueous solution for injection)) shown in Table 1 comprising 5 mg/mL of the active ingredient (compound A) was reconstituted. Further, according to the compositions shown in Table 3 below, administration solutions were prepared by mixing the 25 mg formulation (aqueous solution for injection), the 0 mg formulation (aqueous solution for injection), and a physiological saline (physiological saline solution).
Each of the obtained administration solutions was intravenously administered with a syringe pump over the administration times shown in Table 3. The number of subjects to which each solution was administered was 6 healthy adult males (aged 20 to 40 years old) (N=6).
The number of subjects who developed, within 24 hours after the initiation of administration, side effects that could appear on the skin or subcutaneous tissue (erythema, hyperhidrosis, or pruritus) was recorded.

[1] = administration solution 1, 15 mg compound A i.v. over 2 hours
[2] = administration solution 2, 7.5 mg compound A i.v. over 2 hours
[3] = administration solution 3, 15 mg compound A i.v. over 5 minutes
[4] = administration solution 4, 7.5 mg compound A i.v. over 5 minutes
[5] = administration solution 5, 15 mg compound A i.v. over 1 minute
[6] = administration solution 6, 7.5 mg compound A i.v. over 1 minute

Cc1ccccc1C(=O)Nc1ccc(C(=O)N2CCCC(OP(=O)([O-])[O-])c3cc(Cl)ccc32)c(C)c1.[Na+].[Na+] (centres unmarked) [compound A]
2 human: Hyperhidrosis (number of subjects) [3] | Hyperhidrosis (number of subjects) [4] | Hyperhidrosis (number of subjects) [5]
4 human: Erythema (number of subjects) [3] | Pruritus (number of subjects) [3] | Number of subjects who showed at least one symptom [4] | Pruritus (number of subjects) [5] | Pruritus (number of subjects) [6]
3 human: Erythema (number of subjects) [4] | Pruritus (number of subjects) [4]
5 human: Number of subjects who showed at least one symptom [3] | Erythema (number of subjects) [5] | Number of subjects who showed at least one symptom [5] | Erythema (number of subjects) [6] | Number of subjects who showed at least one symptom [6]
0 human: Erythema (number of subjects) [1] | Hyperhidrosis (number of subjects) [1] | Number of subjects who showed at least one symptom [1] | Pruritus (number of subjects) [1] | Erythema (number of subjects) [2] | Hyperhidrosis (number of subjects) [2] | Number of subjects who showed at least one symptom [2] | Pruritus (number of subjects) [2] | Hyperhidrosis (number of subjects) [6]
no side effects: side effects that could appear on the skin or subcutaneous tissue, such as erythema, hyperhidrosis, or pruritus (7.5 mg or 15 mg of compound A slowly administered over a period of 2 hours (administration solutions 1 and 2))
frequently observed: erythema, hyperhidrosis, or pruritus (7.5 mg or 15 mg of compound A intravenously administered over a period of 1 minute or 5 minutes (administration solutions 3 to 6))

— patent publication US20220152064A1, “BENZOAZEPINE COMPOUND-CONTAINING PHARMACEUTICAL COMPOSITION” (OTSUKA PHARMACEUTICAL CO., LTD., priority 2019, published 2022)
